Data on five compounds can be found in PubChem BioAssay AID1745844 (Carcinogenic Potency Database (CPDB), 2022).

The data set has as its system rodent lifetime carcinogenesis bioassay, tumor incidence TD50. The data set can be described thus: chronic cancer bioassays in animals – CPDB, compiled studies (AID 1745844).

The TD50 is the dose at which the toxic effect under study appears in half of the subjects.

“And” between values parts separate entries of the source, which are not always exact repeats. Equal values may be shown once. The source made the active and inactive calls. No rule for the calls is given here.

For the compound `CCC1(c2ccccc2)C(=O)NCNC1=O`, the TD50 is 163 mg/kg/day (mouse, strain B6C3F1, females, in feed, site: any site (literature study), lesion: several types, types named in the paper, dosed 101 weeks, study length 104 weeks); 98.7 mg/kg/day (mouse, strain B6C3F1, females, in feed, site: liver, lesion: hepatoblastoma + hepatocellular carcinoma, dosed 101 weeks, study length 104 weeks); 1390 mg/kg/day (mouse, strain B6C3F1, females, in feed, site: liver, lesion: hepatoblastoma, dosed 101 weeks, study length 104 weeks); 42.8 mg/kg/day (mouse, strain B6C3F1, females, in feed, site: liver, lesion: hepatocellular adenoma + hepatoblastoma + hepatocellular carcinoma, dosed 101 weeks, study length 104 weeks); 28.9 mg/kg/day (mouse, strain B6C3F1, females, in feed, site: liver, lesion: hepatocellular adenoma + hepatocellular carcinoma, dosed 101 weeks, study length 104 weeks); 27.7 mg/kg/day (mouse, strain B6C3F1, females, in feed, site: liver, lesion: hepatocellular adenoma, dosed 101 weeks, study length 104 weeks). The TD50 was 97.3 mg/kg/day (mouse, strain B6C3F1, females, in feed, site: liver, lesion: hepatocellular carcinoma, dosed 101 weeks, study length 104 weeks); 1150 mg/kg/day (mouse, strain B6C3F1, males, in feed, site: all sites, lesion: histiocytic sarcoma, dosed 101 weeks, study length 103 weeks); 77.6 mg/kg/day (mouse, strain B6C3F1, males, in feed, site: any site (literature study), lesion: several types, types named in the paper, dosed 101 weeks, study length 103 weeks); 60.2 mg/kg/day (mouse, strain B6C3F1, males, in feed, site: liver + thyroid gland, lesion: hepatocellular adenoma + hepatoblastoma + hepatocellular carcinoma + follicular-cell adenoma, dosed 101 weeks, study length 103 weeks); 24.7 mg/kg/day (mouse, strain B6C3F1, males, in feed, site: liver, lesion: hepatoblastoma + hepatocellular carcinoma, dosed 101 weeks, study length 103 weeks); 52.5 mg/kg/day (mouse, strain B6C3F1, males, in feed, site: liver, lesion: hepatoblastoma, dosed 101 weeks, study length 103 weeks). In addition, the TD50 reads like this: (mouse, strain B6C3F1, males, in feed, site: liver, lesion: hepatocellular adenoma + hepatoblastoma + hepatocellular carcinoma, dosed 101 weeks, study length 103 weeks) 60.2 mg/kg/day; (mouse, strain B6C3F1, males, in feed, site: liver, lesion: hepatocellular adenoma + hepatocellular carcinoma, dosed 101 weeks, study length 103 weeks) 60.4 mg/kg/day; (mouse, strain B6C3F1, males, in feed, site: liver, lesion: hepatocellular adenoma, dosed 101 weeks, study length 103 weeks) 46.8 mg/kg/day; (mouse, strain B6C3F1, males, in feed, site: liver, lesion: hepatocellular carcinoma, dosed 101 weeks, study length 103 weeks) 55 mg/kg/day; (mouse, strain B6C3F1, males, in feed, site: lung, lesion: alveolar/bronchiolar adenoma + alveolar/bronchiolar carcinoma, dosed 101 weeks, study length 103 weeks) 1760 mg/kg/day; (mouse, strain B6C3F1, males, in feed, site: thyroid gland, lesion: follicular-cell adenoma, dosed 101 weeks, study length 103 weeks) 349 mg/kg/day. Also, the TD50 reads like this: (rat, strain Fischer 344, females, in feed, site: liver, lesion: hepatocellular adenoma + hepatoblastoma + hepatocellular carcinoma, dosed 101 weeks, study length 103 weeks) 4050 mg/kg/day; (rat, strain Fischer 344, males, in feed, site: adrenal medulla, lesion: pheochromocytoma benign, bilateral + pheochromocytoma, benign, dosed 99 weeks, study length 103 weeks) 20.8 mg/kg/day; (rat, strain Fischer 344, males, in feed, site: adrenal medulla, lesion: pheochromocytoma benign, bilateral + pheochromocytoma, malignant + pheochromocytoma, benign, dosed 99 weeks, study length 103 weeks) 20.8 mg/kg/day; (rat, strain Fischer 344, males, in feed, site: any site (literature study), lesion: several types, types named in the paper, dosed 99 weeks, study length 103 weeks) 15.4 mg/kg/day; (rat, strain Fischer 344, males, in feed, site: kidney, lesion: tubule adenoma + tubule carcinoma, dosed 99 weeks, study length 103 weeks) 522 mg/kg/day and 967 mg/kg/day; (rat, strain Fischer 344, males, in feed, site: kidney, lesion: tubule adenoma, dosed 99 weeks, study length 103 weeks) 1280 mg/kg/day and 1290 mg/kg/day. In addition, the TD50 came out at 138 mg/kg/day (rat, strain Fischer 344, males, in feed, site: liver, lesion: hepatocellular adenoma + hepatoblastoma + hepatocellular carcinoma, dosed 99 weeks, study length 103 weeks); 8.15 mg/kg/day (rat, strain Fischer 344, males, in feed, site: testis, lesion: interstitial-cell adenoma, bilateral + interstitial-cell adenoma, dosed 99 weeks, study length 103 weeks); 80.2 mg/kg/day (rat, strain Fischer 344, males, in feed, site: thyroid gland, lesion: follicular-cell adenoma + follicular-cell carcinoma, dosed 99 weeks, study length 103 weeks); 174 mg/kg/day (rat, strain Fischer 344, males, in feed, site: thyroid gland, lesion: follicular-cell adenoma, dosed 99 weeks, study length 103 weeks). In addition, the carcinogen call (rat, strain Fischer 344, females, in feed, site: any site (literature study), lesion: several types, types named in the paper, dosed 101 weeks, study length 103 weeks) was “negative (inactive)”.

On to `O`, for which the TD50 is, setting by setting: (mouse, strain B6C3F1, females, in drinking water, site: any site (literature study), lesion: several types, types named in the paper, dosed 104 weeks, study length 105 weeks) 806 mg/kg/day (inactive); (mouse, strain B6C3F1, females, in drinking water, site: liver, lesion: hepatocellular adenoma + hepatoblastoma + hepatocellular carcinoma, dosed 104 weeks, study length 105 weeks) 4410 mg/kg/day; (mouse, strain B6C3F1, females, in drinking water, site: lung, lesion: alveolar/bronchiolar adenoma + alveolar/bronchiolar carcinoma, dosed 104 weeks, study length 105 weeks) 13400 mg/kg/day; (mouse, strain B6C3F1, females, in feed, site: liver, lesion: hemangiosarcoma, dosed 96 weeks, study length 104 weeks) 57500 mg/kg/day (inactive); (mouse, strain B6C3F1, females, in feed, site: liver, lesion: hyperplastic nodule, dosed 96 weeks, study length 104 weeks) 60500 mg/kg/day (inactive); (mouse, strain B6C3F1, females, in feed, site: lung, lesion: adenocarcinoma, dosed 96 weeks, study length 104 weeks) 260000 mg/kg/day (inactive). Further, the TD50 was 100000 mg/kg/day (inactive) (mouse, strain B6C3F1, females, in feed, site: lung, lesion: adenoma, dosed 96 weeks, study length 104 weeks); 3470 mg/kg/day (inactive) (mouse, strain B6C3F1, males, in drinking water, site: all sites, lesion: hemangioma, dosed 103 weeks, study length 103 weeks); 10700 mg/kg/day (inactive) (mouse, strain B6C3F1, males, in feed, site: all sites, lesion: lymphoma and leukemia, combined, dosed 96 weeks, study length 104 weeks); 24400 mg/kg/day (inactive) (mouse, strain B6C3F1, males, in feed, site: liver, lesion: hemangioma, dosed 96 weeks, study length 104 weeks); 46700 mg/kg/day (inactive) (mouse, strain B6C3F1, males, in feed, site: liver, lesion: hemangiosarcoma, dosed 96 weeks, study length 104 weeks); 87600 mg/kg/day (inactive) (mouse, strain B6C3F1, males, in feed, site: lung, lesion: adenoma, dosed 96 weeks, study length 104 weeks). Also, the carcinogen call reads like this: (mouse, strain B6C3F1, females, in feed, site: all sites, lesion: lymphoma and leukemia, combined, dosed 96 weeks, study length 104 weeks) “negative (inactive)”; (mouse, strain B6C3F1, females, in feed, site: liver, lesion: hemangioma, dosed 96 weeks, study length 104 weeks) “negative (inactive)”; (mouse, strain B6C3F1, females, in feed, site: liver, lesion: hepatocellular carcinoma, dosed 96 weeks, study length 104 weeks) “negative (inactive)”; (mouse, strain B6C3F1, males, in feed, site: liver, lesion: hepatocellular carcinoma, dosed 96 weeks, study length 104 weeks) “negative (inactive)”; (mouse, strain B6C3F1, males, in feed, site: liver, lesion: hyperplastic nodule, dosed 96 weeks, study length 104 weeks) “negative (inactive)”; (mouse, strain B6C3F1, males, in feed, site: lung, lesion: adenocarcinoma, dosed 96 weeks, study length 104 weeks) “negative (inactive)”. For the same compound, the carcinogen call is, setting by setting: (rat, strain Fischer 344, females, in drinking water, site: any site (literature study), lesion: several types, types named in the paper, dosed 105 weeks, study length 105 weeks) “negative (inactive)”; (rat, strain Fischer 344, males, in drinking water, site: any site (literature study), lesion: several types, types named in the paper, dosed 104 weeks, study length 104 weeks) “negative (inactive)”.

As for `[N-]=[N+]=CC(=O)OC[C@H](N)C(=O)O`, the TD50 is, setting by setting: (rat, strain Wistar, both sexes, i.p., site: kidney, lesion: one or several types, types not named, dosed 26 weeks, study length 78 weeks) 0.942 mg/kg/day; (rat, strain Wistar, both sexes, i.p., site: liver, lesion: one or several types, types not named, dosed 26 weeks, study length 78 weeks) 3.02 mg/kg/day; (rat, strain Wistar, both sexes, i.p., site: pancreas, exocrine, lesion: carcinoma, dosed 26 weeks, study length 78 weeks) 0.793 mg/kg/day. Moreover, where the note is “rat, strain Wistar, males, i.p., site: pancreas, lesion: one or several types, types not named, dosed 104 weeks, study length 104 weeks”, the carcinogen call was “negative (inactive)”.

In the case of `NNC(N)=S`, the carcinogen call is “negative (inactive)” (mouse, strain Swiss albino, females, in drinking water, site: liver, lesion: hepatoma, dosed 123 weeks, study length 124 weeks); “negative (inactive)” (mouse, strain Swiss albino, females, in drinking water, site: lung, lesion: one or several types, types not named, dosed 123 weeks, study length 124 weeks); “negative (inactive)” (mouse, strain Swiss albino, males, in drinking water, site: liver, lesion: hepatoma, dosed 115 weeks, study length 121 weeks); “negative (inactive)” (mouse, strain Swiss albino, males, in drinking water, site: lung, lesion: one or several types, types not named, dosed 115 weeks, study length 121 weeks). This compound also came in with a TD50 (rat, strain Charles River CD (Sprague-Dawley), females, in feed, site: mammary gland, lesion: one or several types, types not named, dosed 78 weeks, study length 104 weeks) of 3.07 mg/kg/day.

For `O=NN1CCC1`, the TD50 was 8.83 mg/kg/day (hamster, strain Syrian Golden, males, by gavage, site: any site (literature study), lesion: several types, types named in the paper, dosed 50 weeks, study length 85 weeks); 10.7 mg/kg/day (hamster, strain Syrian Golden, males, by gavage, site: liver, lesion: hepatocellular adenoma, dosed 50 weeks, study length 85 weeks); 7.14 mg/kg/day (hamster, strain Syrian Golden, males, by gavage, site: liver, lesion: several types, types named in the paper, dosed 50 weeks, study length 85 weeks).
